Experimental data as given in patent publication US20070185099A1, “Triazolopyrimidine compounds and their use for controlling pathogenic fungi” (priority 2004, published 2007).

Test system: Puccinia recondita
Assay: Curative activity against brown rust of wheat caused by Puccinia recondita
Format: in vivo
Settings: 250 ppm active compound, wheat cultivar Kanzler, 7 days after treatment, untreated plants 80% infected
Description: The active compounds were prepared as a stock solution by mixing 25 mg of active compound with a mixture of acetone and/or DMSO and the emulsifier Uniperol® EL (wetting agent having an emulsifying and dispersing action based on ethoxylated alkylphenols) in a volume ratio of solvent/emulsifier of 99:1 to give a total volume of 10 ml, and the mixture was then diluted to 100 ml with water. This stock solution was diluted with the solvent/emulsifier/water mixture described to give the concentration of active compounds stated below.
Leaves of potted wheat seedlings of the cultivar “Kanzler” were inoculated with a spore suspension of brown rust (Puccinia recondita). The pots were then placed into a chamber with high atmospheric humidity (90 to 95%) and at 20-22° C. for 24 hours. During this time, the spores germinated and the germ tubes penetrated into the leaf tissue. The next day, the infected plants were sprayed to runoff point with an aqueous suspension having the concentration of active compounds stated below. The suspension or emulsion was prepared as described above. After the spray coating had dried on, the test plants were cultivated in a greenhouse at temperatures between 20 and 22° C. and at 65 to 70% relative atmospheric humidity for 7 days. The extent of the rust fungus development on the leaves was then determined.

COC(=O)C(Nc1c(-c2c(F)cc(F)cc2F)c(Cl)nc2ncnn12)C(C)(C)C (racemic) [Example 61]
infection of treated plants (rust fungus development on leaves): no infection

COC(=O)C(C(C)C)N(C)c1c(-c2c(F)cc(F)cc2F)c(Cl)nc2ncnn12 (centres unmarked) [Example 60]
infection of treated plants (rust fungus development on leaves): no infection
